In ChEMBL document CHEMBL1201862, “PubChem BioAssay data set” (2004):
Activity calls are given as the source filed them.

Columns and labels:
[1] = Luminescence Cell-Based Dose Confirmation to Identify Activators of 5'UTR Stem-Loop Driven Alpha-Synuclein mRNA Translation in H4 Neuroglioblastoma Cells. [Related pubchem assays: 1829 (Project Summary), 1814 (Primary HTS)]; format: functional
[2] = Luminescence Cell-Based Dose Response to Identify Activators of 5'UTR Stem-Loop Driven Prion Protein mRNA Translation in H4-C Neuroglioblastoma Cells. [Related pubchem assays: 1829 (Project Summary), 1814 (Primary HTS)]; format: functional
[3] = Luminescence Cell-Based Dose Response to Identify Activators of Luciferase Translation or Activity in H4-C Neuroglioblastoma Cells. [Related pubchem assays: 1829 (Project Summary), 1814 (Primary HTS)]; format: functional
[4] = Luminescence Cell-Based Dose Response HTS to Identify Activators of Luciferase Translation or Activity in H4 […] Cells. [Related pubchem assays: 1829 (Project Summary), 1814 (Primary HTS)]; format: functional
[5] = LGR2 antagonists, dose response, cell-based, HEK293, CRE-luciferase reporter, cherry pick, set 2 (AID 743343); format: functional;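 also: transfected cells were stimulated with diluted bursicon conditioned medium after compound addition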
[6] = A549 cell cytotoxicity, dose response, cytotoxicity control, plate reader, cherry-pick, antagonist series (AID 743412); format: functional, cell-based
[7] = MC4R antagonists, dose response, counter-screen for LGR2 antagonist project, cell-based, plate reader, cherry pick (AID 743444); format: functional;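 also: transfected HEK 293 cells stimulated with alpha-MSH peptide; potency of inhibitors of the alpha-MSH evoked signal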
[8] = HepG2 cell cytotoxicity, dose response, cytotoxicity control, plate reader, cherry-pick, antagonist series (AID 743416); format: functional, cell-based
H4 = test: Luminescence Cell-Based Dose Response HTS to Identify Activators of 5'UTR Stem-Loop Driven Prion Protein mRNA Translation in H4 Neuroglioblastoma Cells. [Related pubchem assays: 1829 (Project Summary), 1814 (Primary HTS)]; format: functional; conditions: Homo sapiens
cells = format: functional
[9] = Luminescence Cell-Based Dose Confirmation HTS to Identify Activators of 5'UTR Stem-Loop Driven Alpha-Synuclein mRNA Translation in H4 Neuroglioblastoma Cells. [Related pubchem assays: 1829 (Project Summary), 1814 (Primary HTS)]; format: functional
HEK293 [10] = test: cells; format: functional, cell-based; conditions: Homo sapiens
HEK293 [11] = test: NOD2 signaling inhibitors in MDP-stimulated cells, cell-based, uHTS, luminescence (AID 2001); format: functional; conditions: Homo sapiens
HEK293 [12] = test: cells; format: functional, cell-based; conditions: Homo sapiens; remark: listed apart in the source
[13] = target: T1, Zinc finger protein mex-5 (Caenorhabditis elegans, UniProt Q9XUB2); test: MEX-5/TCR-2 RNA interaction inhibitors, dose response, biochemical, C. elegans, fluorescence polarization (AID 1960)
T1 sequence (Q9XUB2 whole entry): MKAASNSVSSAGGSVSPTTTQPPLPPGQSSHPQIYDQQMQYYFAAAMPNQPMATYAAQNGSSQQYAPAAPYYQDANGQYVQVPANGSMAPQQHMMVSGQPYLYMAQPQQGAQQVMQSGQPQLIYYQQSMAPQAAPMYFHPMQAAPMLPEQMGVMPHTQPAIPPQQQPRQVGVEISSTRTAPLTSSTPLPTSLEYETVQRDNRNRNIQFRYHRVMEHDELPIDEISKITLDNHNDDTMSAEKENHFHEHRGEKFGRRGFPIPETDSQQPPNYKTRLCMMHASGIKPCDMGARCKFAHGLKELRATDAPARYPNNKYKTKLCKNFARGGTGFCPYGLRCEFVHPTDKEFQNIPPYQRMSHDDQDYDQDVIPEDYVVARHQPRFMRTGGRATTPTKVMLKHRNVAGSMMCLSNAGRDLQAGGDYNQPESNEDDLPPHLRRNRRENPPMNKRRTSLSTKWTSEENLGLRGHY

[14] = target: T2, RNA-binding protein pos-1 (Caenorhabditis elegans, UniProt G5EF15); test: inhibitors of POS-1/mex-3 RNA binding, dose response, biochemical, fluorescence polarization (AID 1964);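 also: purified POS-1 fused to maltose binding protein made in E. coli; potency of compounds blocking POS-1 binding to fluorescent RNA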
T2 sequence (G5EF15 whole entry): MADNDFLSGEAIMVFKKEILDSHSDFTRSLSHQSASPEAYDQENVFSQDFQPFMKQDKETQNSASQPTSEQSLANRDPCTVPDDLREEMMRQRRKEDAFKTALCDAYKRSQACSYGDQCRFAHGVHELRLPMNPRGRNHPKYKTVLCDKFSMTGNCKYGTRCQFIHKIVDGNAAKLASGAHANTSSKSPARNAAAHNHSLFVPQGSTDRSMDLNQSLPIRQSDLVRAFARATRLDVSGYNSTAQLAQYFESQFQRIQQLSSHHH

HEK293 [15] = test: NOD1 signaling inhibitors, primary screen, cell-based, luminescence, uHTS (AID 1578); format: functional; conditions: Homo sapiens
[16] = target: T3, Corticotropin-releasing factor receptor 2/Corticotropin-releasing factor-binding protein (Homo sapiens, UniProt P24387+Q13324); test: activators of CRF receptor 2 with binding protein – uHTS hits, confirmation (AID 602473); format: functional; conditions: read-out: EC50_Mean
T3 sequence (Q13324 whole entry): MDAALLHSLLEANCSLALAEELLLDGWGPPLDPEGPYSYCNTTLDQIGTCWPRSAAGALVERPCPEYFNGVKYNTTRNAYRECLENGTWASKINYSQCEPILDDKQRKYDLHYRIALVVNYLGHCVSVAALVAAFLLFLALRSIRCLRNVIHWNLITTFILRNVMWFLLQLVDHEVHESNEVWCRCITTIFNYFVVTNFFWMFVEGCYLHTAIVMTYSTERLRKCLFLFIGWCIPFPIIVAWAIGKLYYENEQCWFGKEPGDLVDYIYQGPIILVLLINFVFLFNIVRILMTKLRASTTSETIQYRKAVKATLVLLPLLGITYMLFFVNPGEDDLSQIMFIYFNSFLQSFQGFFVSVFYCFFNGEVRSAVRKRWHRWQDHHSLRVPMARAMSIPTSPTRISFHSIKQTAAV
T3 sequence (P24387 whole entry): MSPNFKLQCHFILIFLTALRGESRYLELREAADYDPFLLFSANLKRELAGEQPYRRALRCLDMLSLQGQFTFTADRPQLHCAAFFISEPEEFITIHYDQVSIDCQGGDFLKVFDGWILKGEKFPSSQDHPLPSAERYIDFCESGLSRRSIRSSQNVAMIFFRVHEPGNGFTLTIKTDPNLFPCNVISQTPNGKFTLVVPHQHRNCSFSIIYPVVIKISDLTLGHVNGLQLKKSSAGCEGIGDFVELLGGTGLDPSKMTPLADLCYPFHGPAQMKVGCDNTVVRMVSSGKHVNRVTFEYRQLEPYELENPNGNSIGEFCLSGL

[17] = target: T4, Short transient receptor potential channel 4 (Mus musculus, UniProt Q9QUQ5); test: mouse TRPC4 channel activators, dose response, cell-based, HEK293 TRPC4/mu-opioid, Fluo-4 calcium (AID 434937); format: functional
T4 sequence (Q9QUQ5 whole entry): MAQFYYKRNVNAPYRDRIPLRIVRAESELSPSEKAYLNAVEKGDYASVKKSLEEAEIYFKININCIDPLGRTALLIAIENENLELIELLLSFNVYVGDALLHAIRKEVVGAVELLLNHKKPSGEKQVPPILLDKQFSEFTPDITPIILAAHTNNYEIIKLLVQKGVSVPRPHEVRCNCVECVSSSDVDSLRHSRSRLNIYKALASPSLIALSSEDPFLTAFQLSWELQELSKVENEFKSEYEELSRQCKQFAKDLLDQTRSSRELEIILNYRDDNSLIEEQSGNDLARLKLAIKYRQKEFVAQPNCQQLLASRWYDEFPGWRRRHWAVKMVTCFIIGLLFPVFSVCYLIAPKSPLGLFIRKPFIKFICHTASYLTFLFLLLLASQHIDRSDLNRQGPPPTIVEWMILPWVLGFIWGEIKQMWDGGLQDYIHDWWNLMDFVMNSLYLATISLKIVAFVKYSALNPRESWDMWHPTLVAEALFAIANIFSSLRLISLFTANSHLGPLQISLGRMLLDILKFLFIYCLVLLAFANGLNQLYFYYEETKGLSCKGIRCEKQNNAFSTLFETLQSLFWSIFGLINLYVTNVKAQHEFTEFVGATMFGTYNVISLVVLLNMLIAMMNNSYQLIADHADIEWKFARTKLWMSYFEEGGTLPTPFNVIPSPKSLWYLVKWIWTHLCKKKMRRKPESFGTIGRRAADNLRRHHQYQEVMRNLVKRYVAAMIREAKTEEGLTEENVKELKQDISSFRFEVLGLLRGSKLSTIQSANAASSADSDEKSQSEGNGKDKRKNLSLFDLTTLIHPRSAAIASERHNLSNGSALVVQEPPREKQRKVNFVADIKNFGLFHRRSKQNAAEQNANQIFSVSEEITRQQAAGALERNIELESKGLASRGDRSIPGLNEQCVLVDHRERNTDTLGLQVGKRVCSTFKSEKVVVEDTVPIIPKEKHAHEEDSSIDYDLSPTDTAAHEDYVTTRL

[18] = target: FAD-linked sulfhydryl oxidase ALR (Homo sapiens, UniProt P55789); test: inhibitors of human ALR sulfhydryl oxidase, dose response, biochemical, H2O2 detection, luminescence, cherry-pick (AID 493248)
Chain of FAD-linked sulfhydryl oxidase ALR (P55789 whole entry): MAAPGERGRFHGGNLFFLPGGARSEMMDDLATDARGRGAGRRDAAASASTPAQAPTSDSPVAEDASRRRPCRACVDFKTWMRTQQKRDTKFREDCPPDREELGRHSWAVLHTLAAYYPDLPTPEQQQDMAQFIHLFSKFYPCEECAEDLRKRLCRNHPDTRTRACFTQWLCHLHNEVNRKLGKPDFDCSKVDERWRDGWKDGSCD

[19] = target: T3, Corticotropin-releasing factor receptor 2/Corticotropin-releasing factor-binding protein; test: Dose Response confirmation of uHTS hits for small molecule antagonists of the CRF-binding protein and CRF-R2 receptor complex.; format: functional; conditions: read-out: IC50_Mean
[20] = CRF-BP/CRF-R2 complex antagonists, dose response, cell-based, uHTS hits, 384-well (AID 651639); format: functional, Homo sapiens; conditions: read-out: IC50_Mean
[21] = inhibitors of Vif binding to APOBEC3G peptide, primary screen, biochemical, TR-FRET, GST-Vif 1-94, biotin-A3G peptide, dose response retest (AID 1117319); format: functional;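 also: TR-FRET signal of purified GST-Vif binding a biotinylated A3G peptide; inhibitors lower the FRET signal by blocking Vif and A3G binding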

Compound: COC(=O)c1ccccc1NC(=O)c1cccc(COc2ccccc2Cl)c1
- EC50 [1]: 0.299 µM (active)
- EC50 [2]: 0.809 µM (active)
- EC50 [3]: 0.295 µM (active)
- EC50 [4]: < 0.1 µM (active)

Compound: Cc1cc(C)n2c(Nc3ccc4c(c3)OCCO4)c(-c3cc4ccccc4o3)nc2n1
- AC50 [5]: 12.7 µM (active)
- AC50 [6]: 29.8 µM (active)
- AC50 [7]: 22.8 µM (active)
- AC50 [8]: > 52 µM (inactive)

Compound: Cc1ccc(NC(=O)ON=C2CCCC2)cc1
- EC50 (H4): > 120 µM (not active)
- EC50 [1]: 0.547 µM (active)
- EC50 [2]: 1.53 µM (active)
- IC50 (cells): 43.2 µM (active)
- EC50 [3]: 0.501 µM (active)
- EC50 [4]: 0.777 µM (active)

Compound: N=C(CS(=O)(=O)c1ccccn1)NOC(=O)c1ccccc1Cl
- EC50 (H4): 10.7 µM (active)
- EC50 [1]: 0.244 µM (active)
- EC50 [2]: 0.769 µM (active)
- EC50 [9]: 0.17 µM (active)
- EC50 [3]: 5.85 µM (active)
- EC50 [4]: < 0.1 µM (active)

Compound: Cc1cccc2cc3c(N)c(C(=O)Nc4ccc(N5CCOCC5)cc4)sc3nc12
- IC50 (HEK293 [10]): 5.5 µM (active)
- IC50 (HEK293 [11]): 7.54 µM (inactive)
- IC50 (HEK293 [12]): > 20 µM (inactive)
- EC50 [13]: > 300 µM (not active)
- EC50 [14]: > 300 µM (not active)
- EC50 (HEK293 [15]): 18.7 µM (active)

Compound: CCCC(=O)N1CCc2cc(-c3nc(N)sc3C)ccc21
- EC50 [16]: > 53 µM (inactive)
- EC50 [17]: 0.376 µM (active)
- EC50 (H4): 44.6 µM (active)
- EC50 [9]: 43.5 µM (active)
- AC50 [18]: 0.149 µM (active)
- EC50 [4]: 31.9 µM (active)
- IC50 [19]: > 47.1 µM (inactive)

Compound: Cc1cccc(CSc2nc3c(c(=O)n2C)SCC3)c1
- EC50 [16]: > 53 µM (inactive)
- IC50 [20]: > 20 µM (inactive)
- IC50 [19]: < 0.368 µM (active)

Compound: CCCn1nc(Oc2nc(SC)nc(N(C)C)n2)ccc1=O
- IC50 [21]: > 100 µM (active)

Compound: CC1C/C(=N/N2C(=O)CSC2=S)CC(C)(C)C1 (configuration not stated)
- IC50 [21]: > 100 µM (active)

Compound: S=C(NCCc1ccccc1)N1CCC2CC1c1c(Cl)cccc12 (configuration not stated)
- EC50 [16]: > 53 µM (inactive)
- IC50 [20]: > 20 µM (inactive)
- IC50 [19]: 28.9 µM (active)

Compound: COc1ccc(NC(=O)CN2CCC(C(N)=O)CC2)cc1
- IC50 [21]: > 100 µM (active)
